Values joined by “and” are separate entries in the source; they are usually repeats but may differ in a detail not shown here. Equal values may be shown once. “Also recorded” adds a separate entry of the source. Read-outs that look alike come from different tables or passages of the source.
Key:
[1] = target: T1, MtOPRT (M. tuberculosis orotate phosphoribosyltransferase) (Mycobacterium tuberculosis, UniProt P9WHK9); experiment: Control measurement of coupled enzyme MtOPRT activity in presence of donors and inhibitors; assay type: biochemical; conditions: compounds present in the assay mixtures of the coupled assays; data not shown
T1 construct: made in house
Protocol: (§1) All chemicals were purchased from Sigma Aldrich. All enzyme activity assays were performed in triplicate. MtPRS activity was measured by a coupled continuous spectrophotometric assay in quartz cuvettes using a UV-visible Shimadzu spectrophotometer UV2550 equipped with a temperature-controlled cuvette holder. […] Homogeneous recombinant MtOPRT was obtained as described elsewhere. […] The reaction mixture (500 µL) contained 1.8 U MtOPRT, 300 µM OA, 20 mM MgCl2, in Tris HCl 50 mM pH 8.0. Reaction was started by addition of MtPRS (0.24–1.2 µM). One unit of MtPRS is defined as the amount of enzyme necessary to convert 1 µmol of R5P to PRPP per min. Effect of Pi over MtPRS activity was assessed by varying Pi concentration (10–50 mM) in the reaction conditions described above.
Accordingly, the effects of the alternative diphosphoryl group donors, or nucleoside 5′-diphosphate or monophosphate inhibitors, were solely due to changes in MtPRS enzyme activity.

MtPRS [2] = target: T2, MtPRS (Mycobacterium tuberculosis, UniProt P9WKE3); experiment: MtPRS inhibition assays (coupled assay, fixed R5P and ATP); assay type: biochemical
Protocol: as §1
All measurements were performed in triplicate. The concentration of inhibitor required to reduce the fractional enzyme activity to half of its initial value in the absence of inhibitor (IC50) was obtained from fitting the data to Eq. (4) for partial inhibition, in which y is the fractional activity of the enzyme in the presence of inhibitor at concentration [I]; y (max) is the maximum value of y observed at [I] = 0; and y min is the minimum limiting value of y at high inhibitor concentrations. [drawing 4] (4)

M. tuberculosis PRS [3] = conditions: cited from earlier work; for IC50: read-out: IC50 (inhibition of MtPRS activity)
MtPRS [4] = target: T2, MtPRS; experiment: Intrinsic tryptophan fluorescence (ITF) titration, binary complex formation at equilibrium; assay type: binding; conditions: for Kd: Tris HCl 50 mM pH 7.5, MgCl2 20 mM, read-out: KD (hyperbolic binding to free MtPRS); for change in intrinsic protein fluorescence upon titration of free MtPRS: absence of second substrate
Protocol: Intrinsic tryptophan fluorescence titration was carried out to assess binary complex formation at equilibrium between MtPRS and either substrate(s) or product(s) at 25°C [43]. […] Fluorescence titrations were performed by making microliter additions of substrates and products at varying stock concentrations to 1 mL of MtPRS 3 µM, with a maximum dilution of 6%. […] After each ligand titration, the mixture was stirred for 3 minutes to ensure equilibrium binding prior to ITF measurements. […] Control experiments were performed in the same conditions in the absence of MtPRS to verify any inner filter effect, and the values found in the control experiments were subtracted from those obtained in the presence of the enzyme. No corrections for effects of protein dilution on ITF upon addition of buffer A containing MgCl2 20 mM to MtPRS were necessary. Data from equilibrium fluorescence spectroscopy were fitted to Eq. (5) for hyperbolic binding isotherms, in which F is the observed fluorescence signal; F max is the maximal fluorescence intensity; and KD represents the dissociation constant for binding of substrate and/or product to MtPRS. Sigmoidal binding data were fitted Eq. (6), in which F is the observed fluorescence signal, F max is the maximal fluorescence intensity, n is the Hill coefficient, and K’ is a constant comprising interaction factors and the intrinsic dissociation constant. [drawing 5] (5) [drawing 6] (6)

M. tuberculosis PRS [5] = conditions: ref Alderwick, et al. 2011 [30], cited from earlier work
S. typhimurium PRS = system: S. typhimurium PRS; parameters: method as in PMID 211378; conditions: cited from earlier work
[6] = target: T3, MtPRS (Mycobacterium tuberculosis phosphoribosylpyrophosphate synthase) (Mycobacterium tuberculosis, UniProt P9WKE3); conditions: diphosphoryl donor varied, R5P fixed at 60 µM, 25°C
[7] = target: T3, MtPRS (Mycobacterium tuberculosis phosphoribosylpyrophosphate synthase); experiment: biochemical
[8] = system: Nc1nc2c(ncn2[C@@H]2O[C@H](COP(=O)(O)OP(=O)(O)OP(=O)(O)O)[C@@H](O)[C@H]2O)c(=O)[nH]1; experiment: purified protein, by the assay type; conditions: pH 8.0
[9] = system: O=P(O)(O)OC[C@H]1O[C@H](O)[C@H](O)[C@@H]1O; experiment: purified protein, by the assay type; conditions: pH 8.0
[10] = system: O=c1ccn([C@@H]2O[C@H](COP(=O)(O)OP(=O)(O)OP(=O)(O)O)[C@@H](O)[C@H]2O)c(=O)[nH]1; experiment: purified protein, by the assay type; conditions: pH 8.0
[11] = target: the molecule itself; experiment: cross-linking; glutaraldehyde vapour cross-linking, 0.3 mg/mL MtPRS in Tris HCl 50 mM pH 7.5 with ATP 5 mM, with or without Pi 50 mM, 30°C, 12% SDS-PAGE
[12] = target: the molecule itself; experiment: cross-linking; glutaraldehyde vapour cross-linking, 0.3 mg/mL apo MtPRS in Tris HCl 50 mM pH 7.5, with or without Pi 50 mM, 30°C, different incubation times, 12% SDS-PAGE
[13] = target: the molecule itself; experiment: as above; remark: listed apart in the source
[14] = target: the molecule itself; experiment: cross-linking; glutaraldehyde vapour cross-linking, 0.3 mg/mL MtPRS in Tris HCl 50 mM pH 7.5 with R5P 5 mM, with or without Pi 50 mM, 30°C, 12% SDS-PAGE
[15] = target: the molecule itself; experiment: cross-linking; glutaraldehyde vapour cross-linking, 0.3 mg/mL MtPRS in Tris HCl 50 mM pH 7.5 with ADP 5 mM, with or without Pi 50 mM, 30°C, 12% SDS-PAGE
[16] = read-out: IC50 (partial inhibition of MtPRS activity)
[17] = 37°C, KH2PO4 50 mM pH 8.0, ref Lucarelli, et al. 2010 [31]
[18] = ref Lucarelli, et al. 2010 [31]

T1 sequence (P9WHK9 whole entry): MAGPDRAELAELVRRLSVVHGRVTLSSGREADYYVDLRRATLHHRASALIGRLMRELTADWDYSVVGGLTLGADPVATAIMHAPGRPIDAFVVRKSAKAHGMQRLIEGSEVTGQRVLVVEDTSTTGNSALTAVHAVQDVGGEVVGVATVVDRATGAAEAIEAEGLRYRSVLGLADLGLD

For `Nc1ncnc2c1ncn2[C@@H]1O[C@H](COP(=O)(O)OP(=O)(O)O)[C@@H](O)[C@H]1O` [ADP, adenosine 5′-diphosphate], the “effect on MtOPRT enzyme activity” value [1] is listed as “did not have any effect”, the IC50 (MtPRS [2]; [16]) is listed as 70 µM and the IC50 (M. tuberculosis PRS [3]; saturating ATP and non-saturating Pi concentrations) is listed as 260 µM. For the same molecule, the IC50 (M. tuberculosis PRS [3]; saturating ATP and saturating Pi concentrations) was 400 µM.

In the case of `Nc1ncnc2c1ncn2[C@@H]1O[C@H](COP(=O)(O)O)[C@@H](O)[C@H]1O` [AMP], the “K' (sigmoidal binding, Hill equation)” value (MtPRS [4]; 25°C, MtPRS 3 µM, MgCl2 20 mM) is reported as 109 (±3) µM and 109 µM and the Hill coefficient (MtPRS [4]; sigmoidal binding to free MtPRS) is reported as 3.2.

In the case of `Nc1ncnc2c1ncn2[C@@H]1O[C@H](COP(=O)(O)OP(=O)(O)OP(=O)(O)O)[C@@H](O)[C@H]1O` [ATP, adenosine 5′-triphosphate], the “effect on MtOPRT enzyme activity” value [1] is listed as “did not have any effect”, the Vmax (M. tuberculosis PRS [5]; 37°C, KH2PO4 50 mM pH 8.0) is listed as 601 µmol⁻¹ min⁻¹ mg⁻¹ and the S0.5 (M. tuberculosis PRS [5]) is listed as 62.65 µM. For the same molecule, the “n (Hill coefficient)” value (M. tuberculosis PRS [5]) was 1.68, the kcat (M. tuberculosis PRS [3]; [17]) was 34.6 (±3) s^−1 and the S0.5 (M. tuberculosis PRS [3]; [18]) was 260 (±50) µM. The “n (Hill coefficient)” value (M. tuberculosis PRS [3]; [18]) was 1 and the Kd (MtPRS [4]; 25°C, MtPRS 3 µM) was 18 µM.

In the case of `Nc1ccn([C@@H]2O[C@H](COP(=O)(O)OP(=O)(O)OP(=O)(O)O)[C@@H](O)[C@H]2O)c(=O)n1` [CTP, cytosine 5′-triphosphate], the “effect on MtOPRT enzyme activity” value [1] is listed as “did not have any effect”, the “change in intrinsic protein fluorescence upon titration of free MtPRS” value (shortened to “change … of free MtPRS”) (MtPRS [4]; 25°C, MtPRS 3 µM) is listed as “No change in protein fluorescence; also recorded: no change in IFT could be detected” and the “activity as alternative substrate, of maximum reported activity using ATP as substrate” value (from here on “activity as alternative substrate”) (S. typhimurium PRS) is listed as 3%. For the same molecule, the “Vmax (apparent)” value ([6]; pH 8.0, no Pi) was 0.111 (±0.003) µmol^−1 min^−1 mg^−1, the kcat ([6]; pH 8.0, no Pi) was 0.065 (±0.001) s^−1 and the Km ([6]; read-out: KM (apparent), Tris HCl 50 mM pH 8.0, MgCl2 20 mM, no Pi) was 26 µM.

In the case of `Nc1nc2c(ncn2[C@@H]2O[C@H](COP(=O)(O)OP(=O)(O)O)[C@@H](O)[C@H]2O)c(=O)[nH]1` [GDP, guanosine 5′-diphosphate], the “effect on MtOPRT enzyme activity” value [1] is given as “did not have any effect”, the IC50 (MtPRS [2]; [16]) is given as 900 µM and the IC50 (M. tuberculosis PRS [3]; in the presence of Pi) is given as > 5000 µM.

In the case of `Nc1nc2c(ncn2[C@@H]2O[C@H](COP(=O)(O)OP(=O)(O)OP(=O)(O)O)[C@@H](O)[C@H]2O)c(=O)[nH]1` [GTP, guanosine 5′-triphosphate], the “effect on MtOPRT enzyme activity” value [1] is given as “did not have any effect”, the Kd (MtPRS [4]; 25°C, MtPRS 3 µM) is given as 21 µM and the “activity as alternative substrate” value (S. typhimurium PRS) is given as 3%.

For `O=c1[nH]cnc2c1ncn2[C@@H]1O[C@H](COP(=O)(O)OP(=O)(O)OP(=O)(O)O)[C@@H](O)[C@H]1O` [ITP], the “activity as alternative substrate” value (S. typhimurium PRS) is listed as 3%.

With `O=P(O)(O)OC[C@H]1O[C@H](OP(=O)(O)OP(=O)(O)O)[C@H](O)[C@@H]1O` [PRPP, 5-phospho-α-D-ribose 1-diphosphate] the “change … of free MtPRS” value (MtPRS [4]; 25°C, MtPRS 3 µM) was “no intrinsic protein fluorescence change; also recorded: No change in ITF could be detected”.

In the case of `O=P(O)(O)OC[C@H]1O[C@H](O)[C@H](O)[C@@H]1O` [R5P, α-D-ribose 5-phosphate], the Km (M. tuberculosis PRS [5]; 37°C, KH2PO4 50 mM pH 8.0) is given as 8.2 µM, the Vmax (M. tuberculosis PRS [5]; 37°C, KH2PO4 50 mM pH 8.0) is given as 530 µmol⁻¹ min⁻¹ mg⁻¹ and the kcat (M. tuberculosis PRS [5]; 37°C, KH2PO4 50 mM pH 8.0) is given as 60.68 s⁻¹. The Km (M. tuberculosis PRS [3]; [17]) was 71 µM, the kcat (M. tuberculosis PRS [3]; [17]) was 37.1 s⁻¹ and the Kd (MtPRS [4]; 25°C, MtPRS 3 µM) was 61 µM. The Ki [7] was 211 µM.

For `O=c1ccn([C@@H]2O[C@H](COP(=O)(O)O)[C@@H](O)[C@H]2O)c(=O)[nH]1` [UMP], the “effect on MtOPRT enzyme activity” value [1] was “did not have any effect” and the IC50 (MtPRS [2]; R5P 60 µM, ATP 300 µM fixed, 0.24 µM MtPRS, no Pi, fit to partial inhibition equation) was 3000 µM.

For `O=c1ccn([C@@H]2O[C@H](COP(=O)(O)OP(=O)(O)OP(=O)(O)O)[C@@H](O)[C@H]2O)c(=O)[nH]1` [UTP, uridine 5′-triphosphate], the “effect on MtOPRT enzyme activity” value [1] is given as “did not have any effect”, the “change … of free MtPRS” value (MtPRS [4]; 25°C, MtPRS 3 µM) is given as “No change in protein fluorescence; also recorded: no change in IFT could be detected” and the “activity as alternative substrate” value (S. typhimurium PRS) is given as 3%.

With “MtPRS (Mycobacterium tuberculosis phosphoribosylpyrophosphate synthase) (Mycobacterium tuberculosis H37Rv)” the Km [8] was 37 (±9) µM, the Vmax [8] was 0.237 µmol/min/mg and the kcat [8] was 0.14 ± 0.002 s⁻¹. The kcat/Km [8] was 3800 ± 900 M⁻¹ s⁻¹, the Km [9] was 14 (±2) µM and the Vmax [9] was 1.41 µmol/min/mg. For the same molecule, the kcat [9] was 0.83 ± 0.04 s⁻¹, the kcat/Km [9] was 59000 ± 8000 M⁻¹ s⁻¹ and the Km [10] was 52 (±7) µM. The Vmax [10] was 0.264 µmol/min/mg, the kcat [10] was 0.155 s⁻¹ and the kcat/Km [10] was 3000 M⁻¹ s⁻¹.

B1: Mycobacterium tuberculosis phosphoribosylpyrophosphate synthase (MtPRS) (enzyme)
chain: MSHDWTDNRKNLMLFAGRAHPELAEQVAKELDVHVTSQDAREFANGEIFVRFHESVRGCDAFVLQSCPAPVNRWLMEQLIMIDALKRGSAKRITAVMPFYPYARQDKKHRGREPISARLIADLLKTAGADRIVTVDLHTDQIQGFFDGPVDHMRGQNLLTGYIRDNYPDGNMVVVSPDSGRVRIAEKWADALGGVPLAFIHKTRDPRVPNQVVSNRVVGDVAGRTCVLIDDMIDTGGTIAGAVALLHNDGAGDVIIAATHGVLSDPAAQRLASCGAREVIVTNTLPIGEDKRFPQLTVLSIAPLLASTIRAVFENGSVTGLFDGDA
notes: also called prsA gene product; Rv1017c
With B1 the “stoichiometry N” value [11] was 2, the “stoichiometry N” value [12] was 6 and the “stoichiometry N” value [13] was 3. The “stoichiometry N” value [14] was 6 and the “stoichiometry N” value [15] was 4.

— paper PMC3380012, “Wild-Type Phosphoribosylpyrophosphate Synthase (PRS) from Mycobacterium tuberculosis: A Bacterial Class II PRS?” (PLoS ONE, 2012)
